Three compounds from patent US12440571B2, “Immune agonists” (SHENZHEN UNIVERSITY, priority 2020, dated 2025) can be followed below.

Assay type in all cases: cell-based
The test system of assay [1] is human lymphoma Raji cells. Put plainly: CCK8 growth inhibition, Raji. The conditions noted are these: Homo sapiens, Raji, CCK8 method; read-out: IC50 of inhibitory activity on tumor cell growth, Raji. (Tetrazolium dyes change colour on reduction, which living cells bring about.)
For assay [2], the system named is human leukemia HL-60 cells. Description: CCK8 growth inhibition, HL60. The following applies: Homo sapiens, HL-60, CCK8 method; read-out: IC50 of inhibitory activity on tumor cell growth, HL60.
Assay [3] concerns murine leukemia WEHI-3 cells. Description: CCK8 growth inhibition, WEHI-3. The following applies: Mus musculus, CCK8 method, read-out: IC50 of inhibitory activity on tumor cell growth, WEHI-3.
For the next assay, the system named is A549. Put plainly: CCK8 growth inhibition, A549. The conditions noted are these: Homo sapiens, CCK8 method, read-out: IC50 of inhibitory activity on tumor cell growth, A549.

In the case of `CCCCOc1nc(N)c2nc(O)n(Cc3cn(CCOCCOCCOCCNC(=S)N4CCCC(n5nc(-c6ccc(Oc7ccccc7)cc6)c6c(N)ncnc65)C4)nn3)c2n1` (stereo not shown) [GY112], the IC50 (usually the midpoint of a concentration-inhibition curve) was found to be 10.6 µM in assay [1], 9.75 µM in assay [2], 5.31 µM in assay [3] and 16.8 µM with A549.
As for `CCCCOc1nc(N)c2nc(O)n(Cc3cn(CCOCCOCCOCCNC(=S)Nc4cc(Nc5nccc(-c6cn(C)c7ccccc67)n5)c(OC)cc4N(C)CCN(C)C)nn3)c2n1` [GY127], the 50% inhibitory concentration (IC50) is 19.1 µM in assay [2] and 23.2 µM in the assay on A549.
In the case of `CCCCOc1nc(N)c2nc(O)n(Cc3cn(CCCCN4CCN(CCCNC(=S)N5CCCC(n6nc(-c7ccc(Oc8ccccc8)cc7)c7c(N)ncnc76)C5)CC4)nn3)c2n1` (stereo not shown) [GY161], the IC50 in assay [1] was found to be 16.1 µM.
